Source: patent publication US9862711B2, “Pyrazine derivatives as phosphatidylinositol 3-kinase inhibitors” (NOVARTIS AG, priority 2014, dated 2018)

Key:
[1] = molecular target: PI 4-kinase beta (Homo sapiens (Human), UniProt Q9UBF8); assay: Kinase Glo Luminescent Kinase Assay (Assay D); type: biochemical; conditions: 1 μM ATP, read-out: Assay D PI4Kβ IC50
Text: (§1) Kinase Glo Luminescent Kinase Assay (Kglo) for PI 3-Kinase Alpha (A), Pb 3-Kinase Beta (B), Vps34 (C), PI 4-Kinase Beta (D)
(§2) The luminescence-based ATP detection reagent KinaseGlo was obtained from Promega, (Cat. No. V6714, Lot No. 236161) through Catalys, Wallisellen, Switzerland. L-alpha-phosphatidylinositol (PI, liver, bovine) was obtained from Avanti Polar Lipid (Cat. No. 840042C, Lot#LPI-274), Phosphatidylinositol-4,5-bisphosphate (PIP(4,5)2) was also obtained from Avanti Polar Lipid (Cat. No. 840046X). L-α-Phosphatidylserine (PS) was obtained from Avanti Polar Lipid (Cat. No. 840032C), n-Octylglucoside from Avanti Polar Lipid (Cat. No. 10634425001). Luminescence is a well established readout to determine ATP concentrations and can thus be used to follow the activity of many kinases regardless of their substrate. The Kinase Glo Luminescent Kinase Assay (Promega, Madison/WI, USA) is a homogeneous HTS method of measuring kinase activity by quantifying the amount of ATP remaining in solution following a kinase reaction.
(§3) 50 nL of compound dilutions were dispensed onto black 384-well low volume Non Binding Styrene (NBS) plates (Costar Cat. No. NBS#3676). L-α-phosphatidylinositol (PI), provided as 10 mg/ml solution in methanol, was transferred into a glass tube and dried under a nitrogen beam. It was then resuspended in 3% OctylGlucoside (1-O-n-octyl-beta-D-glucopyranoside) by vortexing and stored at 4° C. 5 μL of a mix of PI/OctylGlucoside with the PI 3-kinase alpha and PI 3-kinase beta subtypes, or Vps34 or PI 4-kinase beta were added. Kinase reactions were started by the addition of 5 μl of an ATP-mix containing in a final volume 10 μL 10 mM TRIS-HCl pH 7.5, 3 mM MgCl2, 50 mM NaCl, 0.05% CHAPS, 1 mM DTT and 1 μM ATP at room temperature. Reactions were stopped with 10 μl of KinaseGlo and plates were read 10 mins later in a Synergy2 reader using an integration time of 0.1 seconds per well. 2.5 μM of NVP-BGT226 (1-(3-(trifluoromethyl)-4-(piperazin-1-yl)phenyl)-8-(6-methoxypyridin-3-yl)-3-methyl-1H-imidazo[4,5-c]quinolin-2(3H)-one) was added to the assay plates to generate the 100% inhibition of the kinase reaction, and the 0% inhibition was given by the solvent vehicle (90% DMSO in water). (1-(3-(trifluoromethyl)-4-(piperazin-1-yl)phenyl)-8-(6-methoxypyridin-3-yl)-3-methyl-1H-imidazo[4,5-c]quinolin-2(3H)-one) was used as a reference compound and included in all assay plates in the form of 16 dilution points in duplicate.
(§4) IC50 values of the percentage inhibition of each compound at 8 concentrations (10, 3.0, 1.0, 0.3, 0.1, 0.030, 0.010 and 0.003 μM) n=2 were derived by fitting a sigmoidal dose-response curve to a plot of assay readout over inhibitor concentration as described. All fits were performed with the program XLfit4 (ID Business Solutions, Guildford, UK).

[2] = molecular target: Vps34 (Homo sapiens (Human), UniProt Q8NEB9); assay: Kinase Glo Luminescent Kinase Assay (Assay C); type: biochemical; conditions: 1 μM ATP
Text: as §1, §2, §3, §4

PI 4-kinase beta, sequence (Q9UBF8 whole entry): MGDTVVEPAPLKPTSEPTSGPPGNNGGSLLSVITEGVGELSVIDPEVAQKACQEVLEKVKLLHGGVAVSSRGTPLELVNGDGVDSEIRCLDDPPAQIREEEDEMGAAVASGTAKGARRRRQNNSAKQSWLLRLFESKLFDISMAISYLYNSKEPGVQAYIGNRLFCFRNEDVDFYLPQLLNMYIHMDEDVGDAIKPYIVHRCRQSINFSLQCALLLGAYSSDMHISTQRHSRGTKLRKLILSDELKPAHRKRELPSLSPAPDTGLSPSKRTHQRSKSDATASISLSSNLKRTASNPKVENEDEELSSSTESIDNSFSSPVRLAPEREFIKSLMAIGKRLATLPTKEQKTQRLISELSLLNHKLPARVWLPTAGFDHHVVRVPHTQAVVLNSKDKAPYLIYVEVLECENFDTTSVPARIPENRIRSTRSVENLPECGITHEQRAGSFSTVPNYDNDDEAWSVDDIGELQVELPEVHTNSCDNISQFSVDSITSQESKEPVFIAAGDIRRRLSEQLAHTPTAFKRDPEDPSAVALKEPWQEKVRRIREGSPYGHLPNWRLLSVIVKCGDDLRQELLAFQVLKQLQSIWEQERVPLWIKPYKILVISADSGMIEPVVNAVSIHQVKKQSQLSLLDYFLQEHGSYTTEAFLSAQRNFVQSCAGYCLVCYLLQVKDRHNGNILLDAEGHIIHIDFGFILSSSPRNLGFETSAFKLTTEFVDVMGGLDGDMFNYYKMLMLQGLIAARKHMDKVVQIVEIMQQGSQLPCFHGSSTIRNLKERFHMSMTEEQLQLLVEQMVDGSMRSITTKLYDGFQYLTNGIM
Vps34, sequence (Q8NEB9 whole entry, species assumed): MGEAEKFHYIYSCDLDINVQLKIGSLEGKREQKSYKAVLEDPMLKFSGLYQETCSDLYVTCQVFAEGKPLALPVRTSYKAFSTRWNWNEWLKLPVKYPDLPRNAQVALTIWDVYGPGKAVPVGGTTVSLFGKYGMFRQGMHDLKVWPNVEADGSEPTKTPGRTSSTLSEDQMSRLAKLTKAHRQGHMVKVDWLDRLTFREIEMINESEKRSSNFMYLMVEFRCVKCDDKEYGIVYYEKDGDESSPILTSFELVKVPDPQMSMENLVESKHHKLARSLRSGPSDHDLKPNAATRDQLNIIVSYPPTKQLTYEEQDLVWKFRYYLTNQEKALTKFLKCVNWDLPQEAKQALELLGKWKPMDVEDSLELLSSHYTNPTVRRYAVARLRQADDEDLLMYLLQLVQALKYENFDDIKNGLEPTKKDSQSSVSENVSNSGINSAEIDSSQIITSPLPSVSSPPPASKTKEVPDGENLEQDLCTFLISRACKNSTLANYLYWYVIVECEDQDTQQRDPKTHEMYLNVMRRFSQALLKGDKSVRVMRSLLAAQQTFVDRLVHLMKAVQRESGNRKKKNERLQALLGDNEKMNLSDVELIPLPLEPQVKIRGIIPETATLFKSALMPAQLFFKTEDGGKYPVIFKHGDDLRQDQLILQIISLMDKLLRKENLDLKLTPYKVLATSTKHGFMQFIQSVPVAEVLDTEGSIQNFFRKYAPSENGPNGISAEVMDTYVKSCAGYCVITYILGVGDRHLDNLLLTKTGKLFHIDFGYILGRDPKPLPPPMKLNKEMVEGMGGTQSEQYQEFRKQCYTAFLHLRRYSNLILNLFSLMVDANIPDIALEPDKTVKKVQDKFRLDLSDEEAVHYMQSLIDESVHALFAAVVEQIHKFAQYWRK

Structure (SMILES) | IC50 [1] [µM] | IC50 [2] [µM]
Cc1ncc(-c2cncc(-c3cc(S(=O)(=O)NCCCO)ccc3C)n2)s1 [Example 1, N-(3-Hydroxy-propyl)-4-methyl-3-[6-(2-methyl-thiazol-5-yl)-pyrazin-2-yl]-benzenesulfonamide] | > 9.1 | 3.07
Cc1ccc(S(=O)(=O)NCC(C)(C)O)cc1-c1cncc(-c2cn(C)nc2C)n1 [Example 2, 3-[6-(1,3-Dimethyl-1H-pyrazol-4-yl)-pyrazin-2-yl]-N-(2-hydroxy-2-methyl-propyl)-4-methyl-benzenesulfonamide] | > 9.78 | 3.45
Cc1ccc(S(=O)(=O)NCCC(C)(C)O)cc1-c1cncc(-c2cn(C)nc2C)n1 [Example 3, 3-[6-(1,3-Dimethyl-1H-pyrazol-4-yl)-pyrazin-2-yl]-N-(3-hydroxy-3-methyl-butyl)-4-methyl-benzenesulfonamide] | > 9.55 | 5.3
Cc1ccc(S(=O)(=O)NCC2(C)COC2)cc1-c1cncc(-c2cn(C)nc2C)n1 [Example 4, Trans 3-[6-(1,3-Dimethyl-1H-pyrazol-4-yl)-pyrazin-2-yl]-4-methyl-N-(3-methyl-oxetan-3-ylmethyl)-benzenesulfonamide] | > 10 | 4.3
Cc1ncc(-c2cncc(-c3cc(S(=O)(=O)N[C@H]4CC[C@H](O)CC4)ccc3C)n2)s1 [Example 5, Trans N-(4-Hydroxycyclohexyl)-4-methyl-3-(6-(2-methylthiazol-5-yl)pyrazin-2-yl)benzenesulfonamide] | > 9.1 | 1.81
Cc1ccc(S(=O)(=O)NCC(C)(C)CO)cc1-c1cncc(-c2cn(C)nc2C)n1 [Example 8, 3-[6-(1,3-Dimethyl-1H-pyrazol-4-yl)-pyrazin-2-yl]-N-(3-hydroxy-2,2-dimethyl-propyl)-4-methyl-benzenesulfonamide] | > 9.55 | 4.4
Cc1ccc(S(=O)(=O)NCCC(C)(C)O)cc1-c1cncc(-c2cnn(CCN3CCOCC3)c2)n1 [Example 9, N-(3-Hydroxy-3-methyl-butyl)-4-methyl-3-{6-[1-(2-morpholin-4-yl-ethyl)-1H-pyrazol-4-yl]-pyrazin-2-yl}-benzenesulfonamide] | > 9.1 | > 9.1
Cc1ccc(S(=O)(=O)NCCC(C)(C)O)cc1-c1cncc(-c2cn(CCN3CCOCC3)nc2C)n1 [Example 10, N-(3-Hydroxy-3-methyl-butyl)-4-methyl-3-{6-[3-methyl-1-(2-morpholin-4-yl-ethyl)-1H-pyrazol-4-yl]-pyrazin-2-yl}-benzenesulfonamide] | > 10 | > 10
Cc1ccc(S(=O)(=O)N[C@H]2CC[C@H](O)CC2)cc1-c1cncc(-c2cccnc2)n1 [Example 11, Trans N-(4-Hydroxy-cyclohexyl)-4-methyl-3-(6-pyridin-3-yl-pyrazin-2-yl)-benzenesulfonamide] | > 9.1 | 3.08
